In ChEMBL document CHEMBL5442334, “ASAP - In vitro safety pharmacology profile” (2024):

Legend:
[1] = target: Cannabinoid receptor 2 (Homo sapiens) (UniProt P34972); assay: SafetyScreen: CB2 Human Cannabinoid GPCR Binding Agonist Radioligand LeadHunter Assay, catalogue number: 37; conditions: Test compound concentration 10.0 uM
[2] = target: Histamine H2 receptor (Homo sapiens) (UniProt P25021); assay: SafetyScreen: H2 Human Histamine GPCR Binding Antagonist Radioligand LeadHunter Assay, catalogue number: 1208; conditions: Test compound concentration 10.0 uM
[3] = target: Neuronal acetylcholine receptor; alpha4/beta2 (Homo sapiens) (UniProt P17787+P43681); assay: SafetyScreen: nAChR (alpha4/beta2) Human Ion Channel Binding Agonist Radioligand LeadHunter Assay, catalogue number: 3029; assay type: protein-complex assay; conditions: Test compound concentration 10.0 uM
[4] = target: T1, Glucocorticoid receptor (Homo sapiens) (UniProt P04150); assay: SafetyScreen: GR Human Glucocorticoid NHR Binding Agonist Radioligand LeadHunter Assay, catalogue number: 469; conditions: Test compound concentration 10.0 uM
T1 sequence (whole entry): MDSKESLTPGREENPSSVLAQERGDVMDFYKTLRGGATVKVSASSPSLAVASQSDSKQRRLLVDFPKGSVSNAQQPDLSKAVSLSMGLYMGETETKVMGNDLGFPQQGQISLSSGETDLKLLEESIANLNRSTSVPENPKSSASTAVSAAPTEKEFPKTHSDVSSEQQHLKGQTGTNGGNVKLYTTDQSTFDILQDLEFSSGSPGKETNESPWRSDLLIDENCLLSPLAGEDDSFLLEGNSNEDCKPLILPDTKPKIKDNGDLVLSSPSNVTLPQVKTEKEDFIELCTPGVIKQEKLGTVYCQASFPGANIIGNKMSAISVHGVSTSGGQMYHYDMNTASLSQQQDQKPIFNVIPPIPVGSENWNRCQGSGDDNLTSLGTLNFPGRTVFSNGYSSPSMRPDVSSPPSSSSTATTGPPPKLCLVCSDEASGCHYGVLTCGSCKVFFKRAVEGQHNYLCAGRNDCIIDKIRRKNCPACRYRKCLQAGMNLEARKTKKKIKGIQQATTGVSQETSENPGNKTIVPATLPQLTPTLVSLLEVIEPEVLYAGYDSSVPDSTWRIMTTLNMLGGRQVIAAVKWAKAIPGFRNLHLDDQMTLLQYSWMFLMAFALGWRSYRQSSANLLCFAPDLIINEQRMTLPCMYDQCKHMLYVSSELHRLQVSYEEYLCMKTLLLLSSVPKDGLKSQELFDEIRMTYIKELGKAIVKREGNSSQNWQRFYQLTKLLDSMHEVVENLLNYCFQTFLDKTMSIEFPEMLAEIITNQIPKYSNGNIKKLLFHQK

[5] = test system: Voltage-gated sodium channel; assay: SafetyScreen: Sodium Ion Channel Site 2 (Non-Selective) Rat Ion Channel [3H] Batrachotoxinin Binding LeadHunter Assay, catalogue number: 169; assay type: protein assay; conditions: at 10 µM, test compound concentration 10 uM

Histamine H2 receptor (Homo sapiens), sequence (P25021 whole entry): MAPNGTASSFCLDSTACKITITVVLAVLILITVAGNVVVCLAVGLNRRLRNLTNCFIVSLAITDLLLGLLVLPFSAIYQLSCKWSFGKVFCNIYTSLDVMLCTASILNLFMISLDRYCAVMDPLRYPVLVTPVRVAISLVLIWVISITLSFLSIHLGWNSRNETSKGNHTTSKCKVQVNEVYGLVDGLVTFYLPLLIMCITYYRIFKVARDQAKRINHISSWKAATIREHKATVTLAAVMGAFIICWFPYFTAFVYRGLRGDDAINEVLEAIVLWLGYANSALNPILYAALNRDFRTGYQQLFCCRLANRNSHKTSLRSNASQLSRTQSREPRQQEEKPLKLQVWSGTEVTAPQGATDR
Cannabinoid receptor 2 (Homo sapiens), sequence (P34972 whole entry): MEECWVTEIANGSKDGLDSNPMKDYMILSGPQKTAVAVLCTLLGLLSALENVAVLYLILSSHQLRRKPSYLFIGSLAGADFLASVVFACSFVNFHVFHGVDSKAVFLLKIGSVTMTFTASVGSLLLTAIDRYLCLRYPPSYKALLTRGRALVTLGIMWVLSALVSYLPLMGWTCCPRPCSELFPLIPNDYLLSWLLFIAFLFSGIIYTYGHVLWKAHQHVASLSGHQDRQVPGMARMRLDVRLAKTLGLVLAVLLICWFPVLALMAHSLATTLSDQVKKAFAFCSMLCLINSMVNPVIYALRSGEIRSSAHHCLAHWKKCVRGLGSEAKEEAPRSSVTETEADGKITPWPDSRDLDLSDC

Row | Compound | inhibition [1] [%] | inhibition [2] [%] | inhibition [3] [%] | inhibition [4] [%] | Inhibition [5] [%]
1 | CC(C)[C@@H](Nc1ncnc2[nH]c(C(=O)N[C@@H]3CCN(C)C3)cc12)c1ccc2c(c1)S(=O)(=O)CCC2 | -8 | -9 | -2 | 11 | 16
2 | Cc1nn(C)cc1-c1cc2c(N[C@H](c3ccc4c(c3)S(=O)(=O)CCC4)C(C)C)ncnc2[nH]1 | -8 | -4 | -2 | 7 | -1
3 | CC(C)[C@@H](Nc1ncnc2[nH]c(-c3cnn(C)c3C#N)cc12)c1ccc2c(n1)OCCO2 | 16 | – | -2 | 22 | 12
4 | Cn1ncc(-c2cc3c(N[C@@H](c4ccc5c(n4)OCCO5)C(C)(C)C)ncnc3[nH]2)c1C#N | 31 | -10 | -5 | 28 | 34
5 | CNCc1cc(-c2cc3c(N[C@@H](c4ccc5c(c4)S(=O)(=O)CCC5)C(C)C)ncnc3[nH]2)co1 | -8 | -3 | 0 | 21 | 19
6 | COc1ccc([C@H](Cc2nnn[nH]2)NC(=O)c2ncnc3[nH]ccc23)cc1 | – | – | 4 | 1 | -3
7 | C[C@H](C(=O)O)[C@@H](NC(=O)c1ncnc2[nH]ccc12)c1ccc(Br)cc1 | -5 | – | 0 | 3 | 6
8 | CNC(=O)Cn1cc(-c2cc3c(N[C@@H](c4ccc5c(c4)S(=O)(=O)CCC5)C(C)C)ncnc3[nH]2)cn1 | – | – | – | 5 | 11
9 | CC(C)[C@H](Nc1ncnc2[nH]ccc12)c1ccc2c(c1)S(=O)(=O)CCC2 | – | -6 | 1 | 10 | -5
10 | CC(C)[C@H](Nc1ncnc2[nH]c(-c3cnn(C)c3C#N)cc12)c1ccc2c(n1)OCCO2 | 44 | – | 2 | 11 | 10
